Key:
[1] = tested on: intestinal resorption of cholesterol; test: inhibition of the intestinal resorption of cholesterol (CHORES), radioactive cholesterol test feed, faeces radioactivity; type: in vivo, normal female albino rats; settings: rats, 100 μmol/kg p.o.; faeces collected for three days; untreated control = 100%
Description: The substances to be investigated are administered to groups each comprising 6 normal female albino rats (body weight about 70 g) by means of a probang. Immediately thereafter the animals received by means of a probang a test feed containing a radioactive cholesterol. Thereafter, the faeces is collected for three days, freeze-dried and pulverized, and an aliquot is burnt in order to determine the radioactivity of the faeces. Untreated control animals excrete about 40-50% of the radioactive cholesterol taken up with the feed. The radioactive cholesterol which is not excreted is regarded as the resorbed cholesterol, the amount of resorbed cholesterol in the untreated control animals being arbitrarily fixed as 100%. Animals which have been treated with a substance inhibiting the intestinal resorption of cholesterol show a lower resorption of radioactive cholesterol than untreated control animals. The cholesterol resorption (CHORES) is expressed in percentages of the cholesterol resorption of untreated control animals.
(§1) In the following Table there are given the results obtained with representative products provided by the invention. There are given for each of the compounds listed therein the dosage administered (in μmol/kg p.o.) as well as the cholesterol resorption (CHORES) determined in percentages of the cholesterol resorption of untreated control animals. Moreover, the Table contains information concerning the acute toxicity of the compounds investigated (LD50 in mg/kg in the case of single oral administration to mice).

[2] = acute toxicity, single oral administration to mice; settings: mouse, in vivo, single oral administration (p.o.)
Text: as §1

| SMILES | CHORES (cholesterol resorption in percentages of the cholesterol resorption of untreated control animals) [1] [%] | LD50 [2] [mg/kg] |
| --- | --- | --- |
| C[C@@H]1N=C(c2ccccc2Cl)c2c(ccc(NC(=O)N3CCCC(O)C3)c2Br)N(C)C1=O (some centres unmarked) | 44 | – |
| C[C@@H]1N=C(c2ccccc2Cl)c2c(ccc(NC(=O)NC(CO)(CO)CO)c2Br)N(C)C1=O [NHC(CH2 OH)3, 1-[(S)-6-bromo-5-(o-chlorophenyl)-2,3-dihydro-1,3-dimethyl-2-oxo-1H-1,4-benzodiazepin-7-yl]-3-[2-hydroxy-1,1-bis(hydroxymethyl)ethyl]urea] | 30 | > 5000 |
| C[C@@H]1N=C(c2ccccc2Cl)c2c(ccc(NC(=O)NCC(O)CO)c2Br)N(C)C1=O (stereo partly drawn) [NHCH2 CH(OH)CH2 OH, 1-[(S)-6-bromo-5-(o-chlorophenyl)-2,3-dihydro-1,3-dimethyl-2-oxo-1H-1,4-benzodiazepin-7-yl]-3-(2,3-dihydroxypropyl)urea] | 24 | – |
| C[C@@H]1N=C(c2ccccc2Cl)c2c(ccc(NC(=O)NC(C)(CO)CO)c2Br)N(C)C1=O [NHC(CH3)(CH2 OH)2, 1-[(S)-6-bromo-5-(o-chlorophenyl)-2,3-dihydro-1,3-dimethyl-2-oxo-1H-1,4-benzodiazepin-7-yl]-3-[1,1-bis(hydroxymethyl)ethyl]urea] | 31 | > 5000 |
| C[C@@H]1N=C(c2ccccc2Cl)c2c(ccc(NC(=O)NC3CCC(O)CC3)c2Br)N(C)C1=O (some centres unmarked) | 34 | – |
| C[C@@H]1N=C(c2ccccc2Cl)c2c(ccc(NC(=O)NCC3COC(C)(C)O3)c2Br)N(C)C1=O (some centres unmarked) | 25 | – |

— patent US4474777A, “Benzodiazepine derivatives and their pharmaceutical use” (Hoffmann-La Roche Inc., priority 1982, dated 1984)
